Laboratory results published in ChEMBL document CHEMBL4507282, “Data for DCP probe BI-1950” (2021).

What was measured:
[1] = molecular target: Serine/threonine-protein kinase 3 (Homo sapiens) (UniProt Q13188); details: Compound concentration 1000.0 nM
[2] = molecular target: Beta-2 adrenergic receptor (Homo sapiens) (UniProt P07550); details: Compound concentration 10.0 uM
[3] = molecular target: Serine/threonine-protein kinase D3 (Homo sapiens) (UniProt O94806); details: Compound concentration 1000.0 nM
[4] = molecular target: Serine/threonine-protein kinase 17A (Homo sapiens) (UniProt Q9UEE5); details: Compound concentration 1000.0 nM
Serine/threonine-protein kinase 17A (Homo sapiens), sequence (Q9UEE5 whole entry): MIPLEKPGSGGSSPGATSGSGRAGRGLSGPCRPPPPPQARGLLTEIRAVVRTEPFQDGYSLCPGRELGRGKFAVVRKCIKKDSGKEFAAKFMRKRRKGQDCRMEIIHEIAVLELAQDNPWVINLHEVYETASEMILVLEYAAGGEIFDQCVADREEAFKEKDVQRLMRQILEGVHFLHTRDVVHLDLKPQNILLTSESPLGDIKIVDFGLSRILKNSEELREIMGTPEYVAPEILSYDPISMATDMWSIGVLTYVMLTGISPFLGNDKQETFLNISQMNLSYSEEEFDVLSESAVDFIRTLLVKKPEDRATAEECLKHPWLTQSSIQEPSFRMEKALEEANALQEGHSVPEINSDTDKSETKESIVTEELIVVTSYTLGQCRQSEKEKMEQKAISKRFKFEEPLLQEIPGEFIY

[5] = molecular target: Dual specificity protein kinase CLK2 (Homo sapiens) (UniProt P49760); details: Compound concentration 1000.0 nM
[6] = molecular target: Vascular endothelial growth factor receptor 3 (Homo sapiens) (UniProt P35916); details: Compound concentration 1000.0 nM
[7] = system: Hepatocyte growth factor receptor (Homo sapiens), P08581 [Y1235D]; details: Compound concentration 1000.0 nM
[8] = molecular target: Protein-tyrosine kinase 2-beta (Homo sapiens) (UniProt Q14289); details: Compound concentration 1000.0 nM
[9] = molecular target: Cyclin-dependent kinase 3 (Homo sapiens) (UniProt Q00526); details: Compound concentration 1000.0 nM
[10] = molecular target: SRSF protein kinase 3 (Homo sapiens) (UniProt Q9UPE1); details: Compound concentration 1000.0 nM
[11] = molecular target: Calcium/calmodulin-dependent protein kinase kinase 2 (Homo sapiens) (UniProt Q96RR4); details: Compound concentration 1000.0 nM
[12] = molecular target: Homeodomain-interacting protein kinase 4 (Homo sapiens) (UniProt Q8NE63); details: Compound concentration 1000.0 nM
[13] = molecular target: Ephrin type-A receptor 6 (Homo sapiens) (UniProt Q9UF33); details: Compound concentration 1000.0 nM
Ephrin type-A receptor 6 (Homo sapiens), sequence (Q9UF33 whole entry): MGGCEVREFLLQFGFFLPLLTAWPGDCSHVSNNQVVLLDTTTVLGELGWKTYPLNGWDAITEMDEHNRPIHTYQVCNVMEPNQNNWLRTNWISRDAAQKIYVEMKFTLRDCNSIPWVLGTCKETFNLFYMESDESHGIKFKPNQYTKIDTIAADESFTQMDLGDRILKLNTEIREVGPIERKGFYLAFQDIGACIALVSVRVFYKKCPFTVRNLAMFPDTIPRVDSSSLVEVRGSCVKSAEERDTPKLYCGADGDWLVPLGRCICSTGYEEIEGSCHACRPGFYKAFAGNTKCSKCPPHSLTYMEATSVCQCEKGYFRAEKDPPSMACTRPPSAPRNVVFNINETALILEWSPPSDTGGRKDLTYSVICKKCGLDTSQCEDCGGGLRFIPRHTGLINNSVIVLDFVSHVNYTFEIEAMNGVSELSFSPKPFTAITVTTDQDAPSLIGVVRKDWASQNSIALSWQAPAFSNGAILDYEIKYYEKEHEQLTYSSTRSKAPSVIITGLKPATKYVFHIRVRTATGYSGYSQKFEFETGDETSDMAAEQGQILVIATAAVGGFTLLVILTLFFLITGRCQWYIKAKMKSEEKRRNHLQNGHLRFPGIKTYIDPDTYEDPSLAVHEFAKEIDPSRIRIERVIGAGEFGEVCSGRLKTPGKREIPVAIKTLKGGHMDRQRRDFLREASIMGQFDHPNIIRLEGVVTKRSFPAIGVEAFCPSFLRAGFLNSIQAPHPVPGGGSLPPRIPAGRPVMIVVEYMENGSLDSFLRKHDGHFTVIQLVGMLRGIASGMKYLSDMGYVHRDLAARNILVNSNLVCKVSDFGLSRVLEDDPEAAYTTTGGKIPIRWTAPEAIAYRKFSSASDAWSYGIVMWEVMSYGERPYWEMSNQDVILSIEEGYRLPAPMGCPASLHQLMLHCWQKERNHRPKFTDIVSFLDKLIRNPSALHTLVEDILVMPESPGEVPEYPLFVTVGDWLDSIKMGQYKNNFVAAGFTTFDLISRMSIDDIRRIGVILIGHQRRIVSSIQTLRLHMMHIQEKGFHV

[14] = molecular target: Serine/threonine-protein kinase Nek10 (Homo sapiens) (UniProt Q6ZWH5); details: Compound concentration 1000.0 nM
[15] = system: Receptor-type tyrosine-protein kinase FLT3 (Homo sapiens), P36888 [K663Q]; details: Compound concentration 1000.0 nM
[16] = molecular target: Protein kinase C iota type (Homo sapiens) (UniProt P41743); details: Compound concentration 1000.0 nM
[17] = molecular target: Calcium-dependent protein kinase 1 (Plasmodium falciparum) (UniProt P62344); details: Compound concentration 1000.0 nM
[18] = molecular target: Tyrosine-protein kinase JAK3 (Homo sapiens) (UniProt P52333); details: Compound concentration 1000.0 nM
[19] = molecular target: Serine/threonine-protein kinase PLK1 (Homo sapiens) (UniProt P53350); details: Compound concentration 1000.0 nM
[20] = molecular target: Serine/threonine-protein kinase Nek6 (Homo sapiens) (UniProt Q9HC98); details: Compound concentration 1000.0 nM
[21] = molecular target: Serine/threonine-protein kinase Sgk3 (Homo sapiens) (UniProt Q96BR1); details: Compound concentration 1000.0 nM
[22] = molecular target: Cyclin-dependent kinase 4 (Homo sapiens) (UniProt P11802); details: Compound concentration 1000.0 nM
Cyclin-dependent kinase 4 (Homo sapiens), sequence (P11802 whole entry): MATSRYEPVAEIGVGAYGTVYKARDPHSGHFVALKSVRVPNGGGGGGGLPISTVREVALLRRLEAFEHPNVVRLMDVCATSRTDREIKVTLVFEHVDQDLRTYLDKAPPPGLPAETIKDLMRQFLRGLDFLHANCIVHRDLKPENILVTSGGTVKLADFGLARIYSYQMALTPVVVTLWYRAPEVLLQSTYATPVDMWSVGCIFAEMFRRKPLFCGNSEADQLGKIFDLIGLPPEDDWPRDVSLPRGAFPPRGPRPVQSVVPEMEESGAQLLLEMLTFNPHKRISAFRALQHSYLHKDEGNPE

[23] = molecular target: Death-associated protein kinase 1 (Homo sapiens) (UniProt P53355); details: Compound concentration 1000.0 nM
[24] = molecular target: Serine/threonine-protein kinase Nek3 (Homo sapiens) (UniProt P51956); details: Compound concentration 1000.0 nM
[25] = molecular target: Fibroblast growth factor receptor 3 (Homo sapiens) (UniProt P22607); details: Compound concentration 1000.0 nM
[26] = molecular target: Serine/threonine-protein kinase N2 (Homo sapiens) (UniProt Q16513); details: Compound concentration 1000.0 nM
Serine/threonine-protein kinase N2 (Homo sapiens), sequence (Q16513 whole entry, looked up): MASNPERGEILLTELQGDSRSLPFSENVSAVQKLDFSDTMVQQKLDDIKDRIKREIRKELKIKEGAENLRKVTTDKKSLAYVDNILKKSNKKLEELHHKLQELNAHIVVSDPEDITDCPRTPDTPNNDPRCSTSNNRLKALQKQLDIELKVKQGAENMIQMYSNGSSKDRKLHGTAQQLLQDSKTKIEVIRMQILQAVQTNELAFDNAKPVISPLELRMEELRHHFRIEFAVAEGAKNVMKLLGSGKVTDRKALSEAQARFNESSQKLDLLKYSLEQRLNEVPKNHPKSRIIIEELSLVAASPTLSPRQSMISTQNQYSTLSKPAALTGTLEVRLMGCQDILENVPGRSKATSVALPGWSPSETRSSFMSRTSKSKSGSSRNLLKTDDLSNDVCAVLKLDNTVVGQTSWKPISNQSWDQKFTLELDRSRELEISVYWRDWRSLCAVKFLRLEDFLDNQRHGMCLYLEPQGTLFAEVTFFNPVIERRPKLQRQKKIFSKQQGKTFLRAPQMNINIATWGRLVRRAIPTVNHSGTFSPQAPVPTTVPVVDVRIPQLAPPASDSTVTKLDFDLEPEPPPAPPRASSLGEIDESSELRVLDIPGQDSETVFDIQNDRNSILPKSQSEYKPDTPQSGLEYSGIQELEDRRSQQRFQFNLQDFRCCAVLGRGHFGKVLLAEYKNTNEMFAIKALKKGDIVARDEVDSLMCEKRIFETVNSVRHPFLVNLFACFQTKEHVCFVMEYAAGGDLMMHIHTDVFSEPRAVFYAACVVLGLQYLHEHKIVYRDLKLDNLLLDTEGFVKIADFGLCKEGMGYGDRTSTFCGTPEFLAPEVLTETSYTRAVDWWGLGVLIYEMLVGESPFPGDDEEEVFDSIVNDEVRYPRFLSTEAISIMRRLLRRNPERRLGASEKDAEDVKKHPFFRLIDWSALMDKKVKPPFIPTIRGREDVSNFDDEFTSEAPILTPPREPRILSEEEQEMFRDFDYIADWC

[27] = molecular target: Death-associated protein kinase 2 (Homo sapiens) (UniProt Q9UIK4); details: Compound concentration 1000.0 nM
Death-associated protein kinase 2 (Homo sapiens), sequence (Q9UIK4 whole entry, looked up): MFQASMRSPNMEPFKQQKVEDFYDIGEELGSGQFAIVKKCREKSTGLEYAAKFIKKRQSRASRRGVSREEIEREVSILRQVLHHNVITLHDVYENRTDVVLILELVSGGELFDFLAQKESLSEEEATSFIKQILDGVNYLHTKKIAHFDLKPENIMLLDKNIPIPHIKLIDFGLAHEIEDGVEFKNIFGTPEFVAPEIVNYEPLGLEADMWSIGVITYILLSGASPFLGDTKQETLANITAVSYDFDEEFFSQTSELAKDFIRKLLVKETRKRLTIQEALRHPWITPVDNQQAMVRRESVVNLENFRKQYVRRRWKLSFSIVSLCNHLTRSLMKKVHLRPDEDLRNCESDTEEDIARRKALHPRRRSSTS

[28] = molecular target: Cyclin-dependent kinase-like 5 (Homo sapiens) (UniProt O76039); details: Compound concentration 1000.0 nM
[29] = molecular target: Beta-adrenergic receptor kinase 1 (Homo sapiens) (UniProt P25098); details: Compound concentration 1000.0 nM
[30] = molecular target: Myosin-IIIb (Homo sapiens) (UniProt Q8WXR4); details: Compound concentration 1000.0 nM
[31] = molecular target: Cyclin-dependent kinase 18 (Homo sapiens) (UniProt Q07002); details: Compound concentration 1000.0 nM
[32] = molecular target: Serine/threonine-protein kinase Sgk1 (Homo sapiens) (UniProt O00141); details: Compound concentration 1000.0 nM
[33] = molecular target: Sodium-dependent serotonin transporter (Homo sapiens) (UniProt P31645); details: Compound concentration 10.0 uM
[34] = molecular target: Serine/threonine-protein kinase pim-3 (Homo sapiens) (UniProt Q86V86); details: Compound concentration 1000.0 nM
[35] = molecular target: Tyrosine-protein kinase FRK (Homo sapiens) (UniProt P42685); details: Compound concentration 1000.0 nM
[36] = molecular target: Dual specificity protein kinase TTK (Homo sapiens) (UniProt P33981); details: Compound concentration 1000.0 nM
[37] = molecular target: Mitogen-activated protein kinase 10 (Homo sapiens) (UniProt P53779); details: Compound concentration 1000.0 nM
[38] = molecular target: Tyrosine-protein kinase JAK1 (Homo sapiens) (UniProt P23458); details: Compound concentration 1000.0 nM
[39] = system: ALK tyrosine kinase receptor (Homo sapiens), Q9UM73 [L1196M]; details: Compound concentration 1000.0 nM
[40] = molecular target: Serine/threonine-protein kinase D1 (Homo sapiens) (UniProt Q15139); details: Compound concentration 1000.0 nM
[41] = system: Epidermal growth factor receptor (Homo sapiens), P00533 [UNDEFINED MUTATION]; details: Compound concentration 1000.0 nM
[42] = molecular target: Serine/threonine-protein kinase RIO1 (Homo sapiens) (UniProt Q9BRS2); details: Compound concentration 1000.0 nM
[43] = molecular target: Mitogen-activated protein kinase kinase kinase 3 (Homo sapiens) (UniProt Q99759); details: Compound concentration 1000.0 nM
Mitogen-activated protein kinase kinase kinase 3 (Homo sapiens), sequence (Q99759 whole entry): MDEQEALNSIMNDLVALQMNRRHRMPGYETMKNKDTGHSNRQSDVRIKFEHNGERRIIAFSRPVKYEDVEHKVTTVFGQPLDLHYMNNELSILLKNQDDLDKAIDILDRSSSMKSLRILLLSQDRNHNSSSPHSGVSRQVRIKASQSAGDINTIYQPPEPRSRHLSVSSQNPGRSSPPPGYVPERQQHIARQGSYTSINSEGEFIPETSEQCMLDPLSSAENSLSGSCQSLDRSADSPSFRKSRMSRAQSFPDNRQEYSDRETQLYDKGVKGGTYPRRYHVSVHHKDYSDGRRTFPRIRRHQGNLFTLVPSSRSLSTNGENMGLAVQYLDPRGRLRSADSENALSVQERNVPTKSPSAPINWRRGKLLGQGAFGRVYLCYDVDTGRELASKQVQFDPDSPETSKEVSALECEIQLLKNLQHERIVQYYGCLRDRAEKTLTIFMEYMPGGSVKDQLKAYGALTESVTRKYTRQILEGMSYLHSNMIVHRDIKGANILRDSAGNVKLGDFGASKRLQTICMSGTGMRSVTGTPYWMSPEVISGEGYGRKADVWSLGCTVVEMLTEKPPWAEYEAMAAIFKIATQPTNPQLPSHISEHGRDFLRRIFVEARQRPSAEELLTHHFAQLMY

[44] = molecular target: Mitogen-activated protein kinase 12 (Homo sapiens) (UniProt P53778); details: Compound concentration 1000.0 nM
Mitogen-activated protein kinase 12 (Homo sapiens), sequence (P53778 whole entry): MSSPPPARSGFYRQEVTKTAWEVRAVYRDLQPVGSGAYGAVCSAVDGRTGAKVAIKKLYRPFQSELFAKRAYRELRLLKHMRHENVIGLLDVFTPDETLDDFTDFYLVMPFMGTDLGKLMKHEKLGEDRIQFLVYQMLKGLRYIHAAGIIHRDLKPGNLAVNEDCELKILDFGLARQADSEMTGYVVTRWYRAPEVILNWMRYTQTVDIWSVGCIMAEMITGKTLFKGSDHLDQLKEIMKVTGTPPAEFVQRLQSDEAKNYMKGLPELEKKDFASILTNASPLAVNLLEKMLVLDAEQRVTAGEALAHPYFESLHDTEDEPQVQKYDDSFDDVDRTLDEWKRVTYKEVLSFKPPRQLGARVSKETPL

[45] = molecular target: Serine/threonine-protein kinase LATS1 (Homo sapiens) (UniProt O95835); details: Compound concentration 1000.0 nM
[46] = molecular target: Alpha-2B adrenergic receptor (Homo sapiens) (UniProt P18089); details: Compound concentration 10.0 uM

Beta-2 adrenergic receptor (Homo sapiens), sequence (P07550 whole entry, looked up): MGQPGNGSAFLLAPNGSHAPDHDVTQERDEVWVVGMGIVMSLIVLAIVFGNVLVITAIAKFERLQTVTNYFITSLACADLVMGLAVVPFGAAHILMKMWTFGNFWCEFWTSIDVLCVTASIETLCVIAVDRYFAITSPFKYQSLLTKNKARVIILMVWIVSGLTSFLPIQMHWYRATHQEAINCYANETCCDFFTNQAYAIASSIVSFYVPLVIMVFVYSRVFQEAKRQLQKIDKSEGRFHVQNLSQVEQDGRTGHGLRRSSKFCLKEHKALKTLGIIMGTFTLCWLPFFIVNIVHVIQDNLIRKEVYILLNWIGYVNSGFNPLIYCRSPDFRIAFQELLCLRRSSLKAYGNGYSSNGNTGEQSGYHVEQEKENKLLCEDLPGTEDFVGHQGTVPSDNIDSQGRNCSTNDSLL
Serine/threonine-protein kinase 3 (Homo sapiens), sequence (Q13188 whole entry): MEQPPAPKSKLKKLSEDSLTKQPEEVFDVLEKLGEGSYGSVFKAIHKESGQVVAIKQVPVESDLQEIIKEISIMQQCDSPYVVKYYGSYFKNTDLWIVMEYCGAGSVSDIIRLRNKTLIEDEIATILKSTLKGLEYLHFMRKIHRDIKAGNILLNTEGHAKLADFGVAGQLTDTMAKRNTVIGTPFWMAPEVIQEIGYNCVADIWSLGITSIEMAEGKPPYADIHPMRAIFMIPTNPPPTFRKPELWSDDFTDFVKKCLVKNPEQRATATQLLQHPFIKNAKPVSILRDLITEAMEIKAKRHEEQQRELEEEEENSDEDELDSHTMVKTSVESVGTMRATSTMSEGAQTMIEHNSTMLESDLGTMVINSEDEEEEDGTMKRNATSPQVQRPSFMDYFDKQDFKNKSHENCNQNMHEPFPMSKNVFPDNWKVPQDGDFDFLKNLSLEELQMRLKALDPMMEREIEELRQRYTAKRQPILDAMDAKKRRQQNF

C[C@@]1(Cc2ccc(C#N)cc2)C(=O)N(c2cc(Cl)cc(Cl)c2)c2ncc(C(=O)NC3(c4nc(C5CCC5)no4)CC3)n21 [BI 9446]
inactive: residual activity [1] 100% | inhibition [2] -7.08% | residual activity [3] 87% | residual activity [4] 91% | residual activity [5] 100% | residual activity [6] 100% | residual activity [7] 100% | residual activity [8] 100% | residual activity [9] 100% | residual activity [10] 100% | residual activity [11] 100% | residual activity [12] 100% | residual activity [13] 88% | residual activity [14] 100% | residual activity [15] 100% | residual activity [16] 87% | residual activity [17] 100% | residual activity [18] 100% | residual activity [19] 100% | residual activity [20] 100% | residual activity [21] 100% | residual activity [22] 100% | residual activity [23] 100% | residual activity [24] 100% | residual activity [25] 100% | residual activity [26] 100% | residual activity [27] 84% | residual activity [28] 100% | residual activity [29] 100% | residual activity [30] 99% | residual activity [31] 100% | residual activity [32] 100% | inhibition [33] 5.35% | residual activity [34] 100% | residual activity [35] 81% | residual activity [36] 94% | residual activity [37] 100% | residual activity [38] 100% | residual activity [39] 100% | residual activity [40] 86% | residual activity [41] 100% | residual activity [42] 100% | residual activity [43] 100% | residual activity [44] 100% | residual activity [45] 96% | inhibition [46] 15%

C[C@H](NC(=O)c1cnc2n1[C@](C)(Cc1ccc(C#N)cc1)C(=O)N2c1cc(Cl)c(F)c(Cl)c1)C(=O)NC1(c2ccccn2)CC1 [BI 1950]
inactive: residual activity [1] 100% | inhibition [2] -9.72% | residual activity [3] 100% | residual activity [4] 100% | residual activity [5] 97% | residual activity [6] 100% | residual activity [7] 100% | residual activity [8] 100% | residual activity [9] 100% | residual activity [10] 100% | residual activity [11] 100% | residual activity [12] 100% | residual activity [13] 100% | residual activity [14] 100% | residual activity [15] 100% | residual activity [16] 100% | residual activity [17] 100% | residual activity [18] 100% | residual activity [19] 100% | residual activity [20] 100% | residual activity [21] 100% | residual activity [22] 100% | residual activity [23] 100% | residual activity [24] 100% | residual activity [25] 100% | residual activity [26] 63% | residual activity [27] 100% | residual activity [28] 100% | residual activity [29] 100% | residual activity [30] 100% | residual activity [31] 100% | residual activity [32] 100% | inhibition [33] -4.33% | residual activity [34] 100% | residual activity [35] 68% | residual activity [36] 100% | residual activity [37] 91% | residual activity [38] 100% | residual activity [39] 100% | residual activity [40] 100% | residual activity [41] 100% | residual activity [42] 100% | residual activity [43] 100% | residual activity [44] 100% | residual activity [45] 100% | inhibition [46] -3.79%
